The text below walks through data of patent US20230190887A1, “TARGETING G3BP AGGREGATION TO PREVENT NEURODEGENERATION” (priority 2019, published 2023).

Assay [1] relates to motor neurons generated from human induced pluripotent stem cells. The assay can be described thus: Neurite growth of hiPSC-derived motor neurons. The assay is classed as cell-based. As to conditions: 20 μM peptide, assessed 24 h later. How it is done:
Human induced pluripotent stem cells (hiPSCs) were maintained in dishes coated with Matrigel (Corning) in Flex8 media (ThermoFisher). hiPSCs were differentiated into human motor neurons using a directed differentiation protocol optimized by Kevin Eggan. 7000 neurons/well were plated on laminin—or CSPG coated 96 well plates. 100 μl at 10 μg/ml Laminin (ThermoFisher) and 25 ng CSPGs (Millipore) were used per well.
For peptide treatments, 10 μM Tat-fused peptides were added to dissociated DRG cultures at 2 or 12 h after plating. Neurite outgrowth was assessed 24 h after addition of peptides. For the cortical cultures, 10 μM peptide was applied to the axonal compartment at 3 d in vitro (DIV) and axonal growth was assessed at 6 DIV. For iMotor neurons, 20 μM peptides were immediately added and neurite growth was assessed 24 h later.
For neurite outgrowth, images from 60 h DRG cultures were analyzed for neurite outgrowth using WIS-Neuromath. Axon morphology was visualized using GFP and/or NF immunofluorescence as described. Differentiated hiPSC neuron image acquisition and neurite length quantification was performed using Arrayscan XTI (Thermo Fisher).

The test system of the next assay is C9ORF72 iPS-MN axons. The assay can be described thus: OPP labeling of local protein synthesis in iPS-MN axons. The assay is classed as cell-based, human. As to conditions: axonal-exclusive application of 20 μM peptide. An excerpt: Formation of G3BP1-positive RNP condensates is strongly associated with repressed RNA translation, see Sahoo, P. K. et al. A Ca^2+ dependent switch activates axonal casein kinase 2α translation and drives G3BP1 granule disassembly for axon regeneration. Curr. Biol. 30, 4882-4895.e6 (2020), and altered mRNA transport, see Liao, Y. C. et al. RNA granules hitchhike on lysosomes for long-distance transport, using Annexin All as a molecular tether. Cell 179, 147-164.e20 (2019), leading to reduced protein synthesis, see Sahoo, P. K. et al. Axonal G3BP1 stress granule protein limits axonal mRNA translation and nerve regeneration. Nat. Commun. 9, 1-14 (2018). […] By quantifying OPP puncta density within in vitro NMJs, we identified robust protein synthesis within control co-cultures, while protein synthesis in TDPΔNLS NMJs was severely impaired (FIG. 19 3k-l). […] Unpaired-t-test, two-sided ****p<0.0001. c Images and d-f quantification of NFH, pTDP-43 and G3BP1 and their colocalization in C9ORF72 iPS-MN axons either treated or not with G3BP1 peptide. Quantifications of G3BP1 particle density (d), G3BP1-pTDP-43 coloc-particle density (e) and G3BP1-pTDP-43 coloc-particle size (f) from C9ORF72 and control iPS-MN axons, either treated or not with G3BP1 peptide. […] One-way-ANOVA with Holm-Sidak correction. […], ****p<0.0001. i Images and j quantification of OPP puncta density in control or ΔNLS MN axons. […]

Assay [2] has as its system TDPΔNLS MN-muscle co-cultures. The experiment in a line: Co-culture contraction analysis. As to conditions: 20 μM G3BP1 peptides in NMJ compartment. The assay is classed as cell-based, mouse. How it is done: Muscles in co-culture were kept in BA medium for 7 days. To aid NMJ formation, media in all compartments was then replaced to poor neurobasal (PNB) medium, which contained only 1% P/S and 1% Glutamax. Doxycycline was applied to TDP-43ΔNLS cultures only at the proximal MN compartment, in a concentration of 0.1 μg/mL, immediately after plating and throughout the entire experimental timeline. For TDPΔNLS recovery experiments (FIGS. 7-8), Doxycline was […] at the proximal MN compartment after 5 DIV, and the cultures were grown until 11 DIV. […] NMJ activity was assessed by quantifying the percent of innervated and contracting myocytes in co-culture as previously described36. Briefly, after 12 days in co-culture, phase-contrast time lapse image series were acquired at a frame rate of 25 frames-per-second (25 FPS) using a X20 air objective. During imaging, cultures were maintained in controlled temperature and CO2 environment. For obtaining contraction time traces, we used the “Time Series Analyzer V3” plugin for FIJI ImageJ V.2.0.0, and marked a region of interest on a small, high contrast and mobile region on the muscle, and then obtained the mean values for each time point.

Take “YGNKKNNNQNNN-VVEPEPEPEPEPEPEPVSE [G3BP1 190-208 peptide]”: the neurite length result in assay [1] is listed as “significantly increased neurite length”. In addition, in the assay with C9ORF72 iPS-MN axons, the “OPP puncta density (axonal translation)” value was “reversed”. Besides, in assay [2], the “percent of innervated muscles that contract” value is given as “reversed”.
